Results reported in patent US4474748A, “Medicaments potentiated with phenyl alkanols” (priority 1981, dated 1984).
Read-outs that look alike come from different tables or passages of the source.

Key:
[1] = stratum corneum; previous studies; cited from earlier work
[2] = preparation containing 20% benzocaine; intact skin; cited from earlier work
P. aeruginosa = test: Bactericidal (killing) efficacy in the presence of citrated human blood, P. aeruginosa; assay type: cell-based; conditions: Table I, 40% ethanol
Experimental: (§1) A series of the following four solutions was prepared in accordance with the foregoing procedure: […]

intact human skin = conditions: alcohol potentiators 10%
Experimental: To illustrate the enhanced penetration of the topical compositions of the invention, the following formulation was employed to prepare compositions which were then tested in a standardized skin blanching test wherein the degree of blanching corresponds to the degree of penetration.

S. aureus = test: Bactericidal (killing) efficacy in the presence of citrated human blood, S. aureus; assay type: cell-based; conditions: Table II
Experimental: as §1

C. albicans = test: Killing efficacy in the presence of citrated human blood, C. albicans; assay type: cell-based
Experimental: as §1

C. acnes = test: Bactericidal (killing) efficacy in the presence of citrated human blood, C. acnes; assay type: cell-based; conditions: Table II
Excerpt: In a similar manner, additional antimicrobial compositions of this invention have been tested and a summary of the test results appears in Table II.

Staphylococcus aureus = test: Topical staphylococcal infection in rats; assay type: in vivo, Staphylococcus aureus in rats; conditions: for Abscess formation (share of animals): topical staphylococcal infection
Excerpt: In tests and operative techniques carried out according to the procedure set forth in F. Goldschmidt, Reproducible Topical Staphylococcal Infection in Rats, Applied Microbiology, 23, No. 1, p.

## C[S+](C)[O-] [dimethylsulfoxide (DMSO), dimethylsulfoxide]
[1]
  Absorption of topically applied drugs: can enhance the absorption of topically applied drugs through the stratum corneum

## CCOC(=O)c1ccc(N)cc1 [benzocaine]
[2]
  Surface anesthesia: effective to cause surface anesthesia

## CCCC(C)C(C)(C)O (stereo not drawn) [2,3-Dimethyl-2-hexanol, 2,3-dimethyl-2-hexanol]
P. aeruginosa; contact time 1 minute
  Number of Cells Survived: 8.5 × 10^6 cells
P. aeruginosa; contact time 10 minutes
  Number of Cells Survived: 7.6 × 10^6 cells
P. aeruginosa; contact time 30 minutes
  Number of Cells Survived: 5.1 × 10^6 cells

## OCCC1CCCCC1 [2-Cyclohexylethanol, 2-cyclohexylethanol]
P. aeruginosa; contact time 1 minute
  Number of Cells Survived: 1.1 × 10^6 cells
P. aeruginosa; contact time 10 minutes
  Number of Cells Survived: 7.8 × 10^4 cells
P. aeruginosa; contact time 30 minutes
  Number of Cells Survived: 4.8 × 10^4 cells

## CNC[C@H](O)c1ccc(O)c(O)c1 [Epinephrine (E)]
Intact human skin; 10 min after application
  Skin blanching score (penetration of epinephrine): 0
Intact human skin; 20 min after application
  Skin blanching score (penetration of epinephrine): 0-1
Intact human skin; 30 min after application
  Skin blanching score (penetration of epinephrine): 0
Intact human skin; 40 min after application
  Skin blanching score (penetration of epinephrine): 0
Intact human skin; 50 min after application
  Skin blanching score (penetration of epinephrine): 0
Intact human skin; 60 min after application
  Skin blanching score (penetration of epinephrine): 0

## CN(C)C1C(=O)C(C(N)=O)=C(O)C2(O)C(=O)C3=C(O)c4c(O)cccc4C(C)(O)C3CC12 (stereo not drawn) [Tetracycline]
S. aureus; 0.05%, 1 minute
  Number of Cells Survived: 4.2 × 10^8 cells
S. aureus; 0.05%, 10 minutes
  Number of Cells Survived: 4.1 × 10^8 cells
S. aureus; 0.05%, 30 minutes
  Number of Cells Survived: 3.8 × 10^7 cells
C. albicans; Table II, 0.05%, 1 minute
  Number of Cells Survived: 4.3 × 10^7 cells
C. albicans; Table II, 0.05%, 10 minutes
  Number of Cells Survived: 3.9 × 10^7 cells
C. albicans; Table II, 0.05%, 30 minutes
  Number of Cells Survived: 3.6 × 10^7 cells

## N[C@@H]1CON=C1O [Cycloserine]
S. aureus; 0.0125%, 1 minute
  Number of Cells Survived: 60 × 10^7 cells
S. aureus; 0.0125%, 10 minutes
  Number of Cells Survived: 60 × 10^7 cells
S. aureus; 0.0125%, 30 minutes
  Number of Cells Survived: 60 × 10^7 cells

## N=C(NCCCCCCNC(=N)NC(=N)Nc1ccc(Cl)cc1)NC(=N)Nc1ccc(Cl)cc1 [Hibitane]
C. acnes; 0.0125%, 1 minute
  Number of Cells Survived: 45 × 10^6 cells
C. acnes; 0.0125%, 10 minutes
  Number of Cells Survived: 51 × 10^5 cells
C. acnes; 0.0125%, 30 minutes
  Number of Cells Survived: 0 cells

## COC1=CC(=O)C[C@@H](C)[C@]12Oc1c(Cl)c(OC)cc(OC)c1C2=O [Griseofulvin]
C. acnes; 0.0125%, 1 minute
  Number of Cells Survived: 94 × 10^5 cells
C. acnes; 0.0125%, 10 minutes
  Number of Cells Survived: 99 × 10^5 cells
C. acnes; 0.0125%, 30 minutes
  Number of Cells Survived: 92 × 10^5 cells

## CO[C@H]1/C=C/O[C@@]2(C)Oc3c(C)c(O)c4c(O)c(c(/C=N/N5CCN(C)CC5)c(O)c4c3C2=O)NC(=O)/C(C)=C\C=C\[C@H](C)[C@H](O)[C@@H](C)[C@@H](O)[C@@H](C)[C@H](OC(C)=O)[C@@H]1C [Rifampicin]
C. acnes; 0.0125%, 1 minute
  Number of Cells Survived: 17 × 10^6 cells
C. acnes; 0.0125%, 10 minutes
  Number of Cells Survived: 17 × 10^6 cells
C. acnes; 0.0125%, 30 minutes
  Number of Cells Survived: 13 × 10^6 cells

## CCC(O)C1CCCCC1 (stereo not drawn) [1-Cyclohexyl-1-propanol, 1-cyclohexyl-1-propanol]
Staphylococcus aureus; 3.0%, alone, rats
  Recoverable Staphylococcus aureus: ≥ 10^6 cells per gram of excised body wall
Staphylococcus aureus; rats
  Abscess formation (share of animals): 100%

## CCCCCCCCCCCCC[N+](C)(C)Cc1ccccc1 [Benzalkonium chloride]
S. aureus; 0.05%, 1 minute
  Number of Cells Survived: 9.0 × 10^5 cells
S. aureus; 0.05%, 10 minutes
  Number of Cells Survived: 1.0 × 10^5 cells
S. aureus; 0.05%, 30 minutes
  Number of Cells Survived: 2.9 × 10^3 cells

## O=C(Nc1ccc(Br)cc1)c1cc(Br)cc(Br)c1O [Temasept IV, 3,4',5tribromosalicylanilide]
S. aureus; 0.05%, 1 minute
  Number of Cells Survived: 4.2 × 10^8 cells
S. aureus; 0.05%, 10 minutes
  Number of Cells Survived: 4.0 × 10^8 cells
S. aureus; 0.05%, 30 minutes
  Number of Cells Survived: 1.2 × 10^8 cells

## O=C(Nc1ccc(Cl)cc1)Nc1ccc(Cl)c(Cl)c1 [3,4,4'-Chlorocarbanilide]
S. aureus; 0.05%, 1 minute
  Number of Cells Survived: 6.1 × 10^7 cells
S. aureus; 0.05%, 10 minutes
  Number of Cells Survived: 5.2 × 10^7 cells
S. aureus; 0.05%, 30 minutes
  Number of Cells Survived: 3.0 × 10^7 cells

## CC[C@H]1OC(=O)[C@H](C)[C@@H](O[C@H]2C[C@@](C)(OC)[C@@H](O)[C@H](C)O2)[C@H](C)[C@@H](O[C@@H]2O[C@H](C)C[C@H](N(C)C)[C@H]2O)[C@](C)(O)C[C@@H](C)C(=O)[C@H](C)[C@@H](O)[C@]1(C)O [Erythromycin]
S. aureus; 0.025%, 1 minute
  Number of Cells Survived: 4.9 × 10^7 cells
S. aureus; 0.025%, 10 minutes
  Number of Cells Survived: 4.6 × 10^7 cells
S. aureus; 0.025%, 30 minutes
  Number of Cells Survived: 4.3 × 10^ 7 cells
C. albicans; Table II, 0.025%, 1 minute
  Number of Cells Survived: 7.2 × 10^8 cells
C. albicans; Table II, 0.025%, 10 minutes
  Number of Cells Survived: 7.1 × 10^8 cells
C. albicans; Table II, 0.025%, 30 minutes
  Number of Cells Survived: 9.2 × 10^7 cells
C. acnes; 0.0125%, 1 minute
  Number of Cells Survived: 22 × 10^5 cells
C. acnes; 0.0125%, 10 minutes
  Number of Cells Survived: 21 × 10^5 cells
C. acnes; 0.0125%, 30 minutes
  Number of Cells Survived: 18 × 10^5 cells

## Cc1cc(N)c2ccccc2[n+]1CCCCCCCCCC[n+]1c(C)cc(N)c2ccccc21 [Dequalinium chloride]
C. acnes; 0.00125%, 1 minute
  Number of Cells Survived: 26 × 10^5 cells
C. acnes; 0.00125%, 10 minutes
  Number of Cells Survived: 14 × 10^2 cells
C. acnes; 0.00125%, 30 minutes
  Number of Cells Survived: 30 cells

## CCCCCCCCCCCC[N+](C)(C)CCOc1ccccc1 [Domiphen bromide]
Staphylococcus aureus; 10^5 or more cells per gram of excised body wall
  Animals from which S. aureus could be recovered: 82.3%
Staphylococcus aureus; rats
  Abscess formation (share of animals): 82.3%

## O=c1[nH]c(=O)n([C@H]2C[C@H](O)[C@@H](CO)O2)cc1I [5-iodo-2-deoxyuridine]
S. aureus; 0.2%, 1 minute
  Number of Cells Survived: 30 × 10^7 cells
S. aureus; 0.2%, 10 minutes
  Number of Cells Survived: 30 × 10^7 cells
S. aureus; 0.2%, 30 minutes
  Number of Cells Survived: 30 × 10^7 cells

## [O-][n+]1ccccc1[S-].[O-][n+]1ccccc1[S-].[Zn+2] [Zn--omadine]
C. albicans; Table I, contact time 1 minute, human blood, 40% ethanol
  Number of Cells Survived: 9 × 10^8 cells
C. albicans; Table I, contact time 10 minutes, human blood, 40% ethanol
  Number of Cells Survived: 8.0 × 10^8 cells
C. albicans; Table I, contact time 30 minutes, human blood, 40% ethanol
  Number of Cells Survived: 7 × 10^8 cells
